Test results from ChEMBL document CHEMBL1275486, “Kinetic characterization of VIM-7, a divergent member of the VIM metallo-beta-lactamase family” (Antimicrob Agents Chemother, 2008).

What was measured:
Escherichia coli [1] = assay: Activity of Escherichia coli beta-lactamase VIM-1 by spectrophotometry
Escherichia coli [2] = assay: Ratio of Kcat to Km for Escherichia coli beta-lactamase VIM-1 by spectrophotometry

Km (Escherichia coli [1]): 30 µM
kcat (Escherichia coli [1]): 315 s⁻¹
kcat/Km (Escherichia coli [2]): 1.05e+07 M⁻¹ s⁻¹
Compound: O=C(Cc1cccs1)N[C@@H]1C(=O)N2C(C(=O)[O-])=C(C[n+]3ccccc3)CS[C@H]12
